# Legend:
# SD rats [1] = assay: Sensory block, hot plate paw withdrawal time, bupivacaine minimum/maximum analgesic dose test (Example 28); format: in vivo, rat
# Description: (§1) 1.3 Test substance: bupivacaine injection, diluted with physiological saline to the target concentration; the reference substance is physiological saline.
# (§2) After the animals are anesthetized by intraperitoneal injection of 10% chloral hydrate solution, the sciatic nerve is exposed to the biceps and gluteus maximus joints of the hind limbs through surgery, and silicone flexible catheters of the same length (7 cm) are placed around the sciatic nerve. the other ends of the catheters are subcutaneously embedded in the back of the rat, and then sutured and fixed, and 0.2 mL of an antibiotic solution (5,000 U/ml penicillin G) is injected for anti-inflammatory.
# After 2-3 days of catheterization, the SD rats with the body weight of 230-250 g and into which catheters are embedded are screened before the experiment by a hot plate method. The hot plate is heated to (56±1)° C., one of the hind paws of the rat is placed on the hot plate, and the other hind paw is placed in the laboratory room temperature condition, and the tested paw withdrawal time is observed and recorded. The average value of three times measured is recorded as a basic pain threshold.
# (§3) Twenty-four qualified rats (animals with no dyskinesia and pain threshold change after catheterization) are randomly divided into 6 groups, 4 rats in each group, the first group is a control group, the experimental animals are administered with normal saline, and the other groups are administered with different doses of bupivacaine injection. Each group is injected with a corresponding drug through the catheter around the sciatic nerve.
# The sensory block of the rats is examined by a hot plate method. The hot plate is heated to (56±1)° C., one of the hind paws of the rat is placed on the hot plate, and the other hind paw is placed at room temperature in the laboratory, the tested paw withdrawal time is observed and recorded. The average value of two to three times is recorded as a pain threshold. The paw withdrawal time of the hot plate method is recorded. In order to avoid the damage of the experimental animal body, if the rat has not withdrawal paw in the hot plate experiment for more than 15 s, the rat should be removed from the hot plate, and the experimental result is recorded as 15 s. The time point for determining the paw withdrawal time of the hot plate is before administration, and 5 minutes, 10 minutes, 30 minutes, 1 hour, and 2 hours after administration.
# SD rats [2] = assay: Motor block four-level score, bupivacaine dose test (Example 28); format: in vivo, rat; parameters: key to motor function score: 1 = normal movement, 4 = complete loss of paw function
# Description: as §1, §2, §3
# The exercise condition of each group of rats is evaluated by a motor block four-level scoring method. The scoring criteria are: paws can be dorsiflexed, stretched, valgus and other normal exercises, scored by 1 point; paws can be dorsiflexed, bendable or after the adduction, although the paws can be stretched, the stretching ability is weakened, scored by 2 points; the paws can perform dorsiflexion, but no longer has the ability to stretch, scored by 3 points; the paws completely lose the ability of dorsiflexion, curling and stretching, and the rats produce a gait defect, scored by 4 points. The time point for measuring the motor block score is before administration, and 5 min, 10 min, 30 min, 1 h, and 2 h after administration.
# [3] = group 2, 3 mg/kg (0.66 mg/rat) trans-catheter, 0 min (before administration)
# [4] = group 2, 3 mg/kg (0.66 mg/rat) trans-catheter, 5 min
# [5] = group 2, 3 mg/kg (0.66 mg/rat) trans-catheter, 10 min
# [6] = group 2, 3 mg/kg (0.66 mg/rat) trans-catheter, 30 min
# [7] = group 2, 3 mg/kg (0.66 mg/rat) trans-catheter, 60 min
# [8] = group 2, 3 mg/kg (0.66 mg/rat) trans-catheter, 120 min
# [9] = group 3, 1 mg/kg (0.22 mg/rat) trans-catheter, 0 min (before administration)
# [10] = group 3, 1 mg/kg (0.22 mg/rat) trans-catheter, 5 min
# [11] = group 3, 1 mg/kg (0.22 mg/rat) trans-catheter, 10 min
# [12] = group 3, 1 mg/kg (0.22 mg/rat) trans-catheter, 30 min
# [13] = group 3, 1 mg/kg (0.22 mg/rat) trans-catheter, 60 min
# [14] = group 3, 1 mg/kg (0.22 mg/rat) trans-catheter, 120 min
# [15] = group 4, 0.3 mg/kg (0.066 mg/rat) trans-catheter, 0 min (before administration)
# [16] = group 4, 0.3 mg/kg (0.066 mg/rat) trans-catheter, 5 min
# [17] = group 4, 0.3 mg/kg (0.066 mg/rat) trans-catheter, 10 min
# [18] = group 4, 0.3 mg/kg (0.066 mg/rat) trans-catheter, 30 min
# [19] = group 4, 0.3 mg/kg (0.066 mg/rat) trans-catheter, 60 min
# [20] = group 4, 0.3 mg/kg (0.066 mg/rat) trans-catheter, 120 min
# [21] = group 5, 0.1 mg/kg (0.022 mg/rat) trans-catheter, 0 min (before administration)
# [22] = group 5, 0.1 mg/kg (0.022 mg/rat) trans-catheter, 5 min
# [23] = group 5, 0.1 mg/kg (0.022 mg/rat) trans-catheter, 10 min
# [24] = group 5, 0.1 mg/kg (0.022 mg/rat) trans-catheter, 30 min
# [25] = group 5, 0.1 mg/kg (0.022 mg/rat) trans-catheter, 60 min
# [26] = group 5, 0.1 mg/kg (0.022 mg/rat) trans-catheter, 120 min
# [27] = group 6, 0.03 mg/kg (0.0066 mg/rat) trans-catheter, 0 min (before administration)
# [28] = group 6, 0.03 mg/kg (0.0066 mg/rat) trans-catheter, 5 min
# [29] = group 6, 0.03 mg/kg (0.0066 mg/rat) trans-catheter, 10 min
# [30] = group 6, 0.03 mg/kg (0.0066 mg/rat) trans-catheter, 30 min
# [31] = group 6, 0.03 mg/kg (0.0066 mg/rat) trans-catheter, 60 min
# [32] = group 6, 0.03 mg/kg (0.0066 mg/rat) trans-catheter, 120 min
structure (smiles),measurement,setting,value
CCCCN1CCCCC1C(=O)Nc1c(C)cccc1C (centres unmarked) [bupivacaine],hot plate paw withdrawal time,SD rats [1]; [3],3.26 ± 0.88 s
same,hot plate paw withdrawal time,SD rats [1]; [4],6.32 ± 2.29 s
same,hot plate paw withdrawal time,SD rats [1]; [5],7.7 ± 3.88 s
same,hot plate paw withdrawal time,SD rats [1]; [6],7.85 ± 3.36 s
same,hot plate paw withdrawal time,SD rats [1]; [7],5.91 ± 1.9 s
same,hot plate paw withdrawal time,SD rats [1]; [8],4.26 ± 1.42 s
same,hot plate paw withdrawal time,SD rats [1]; [9],2.75 ± 0.74 s
same,hot plate paw withdrawal time,SD rats [1]; [10],5.17 ± 5.41 s
same,hot plate paw withdrawal time,SD rats [1]; [11],7.13 ± 5.43 s
same,hot plate paw withdrawal time,SD rats [1]; [12],7.13 ± 4.01 s
same,hot plate paw withdrawal time,SD rats [1]; [13],3.24 ± 0.85 s
same,hot plate paw withdrawal time,SD rats [1]; [14],2.13 ± 0.8 s
same,hot plate paw withdrawal time,SD rats [1]; [15],3.42 ± 0.87 s
same,hot plate paw withdrawal time,SD rats [1]; [16],6.08 ± 1.68 s
same,hot plate paw withdrawal time,SD rats [1]; [17],7.11 ± 2.55 s
same,hot plate paw withdrawal time,SD rats [1]; [18],7.09 ± 1.45 s
same,hot plate paw withdrawal time,SD rats [1]; [19],3.62 ± 1.25 s
same,hot plate paw withdrawal time,SD rats [1]; [20],3.76 ± 0.69 s
same,hot plate paw withdrawal time,SD rats [1]; [21],3.08 ± 0.61 s
same,hot plate paw withdrawal time,SD rats [1]; [22],4.41 ± 3.24 s
same,hot plate paw withdrawal time,SD rats [1]; [23],4.22 ± 2.45 s
same,hot plate paw withdrawal time,SD rats [1]; [24],3.59 ± 1.89 s
same,hot plate paw withdrawal time,SD rats [1]; [25],2.63 ± 0.41 s
same,hot plate paw withdrawal time,SD rats [1]; [26],2.96 ± 1.38 s
same,hot plate paw withdrawal time,SD rats [1]; [27],3.06 ± 1.1 s
same,hot plate paw withdrawal time,SD rats [1]; [28],3.36 ± 0.91 s
same,hot plate paw withdrawal time,SD rats [1]; [29],2.67 ± 0.6 s
same,hot plate paw withdrawal time,SD rats [1]; [30],3.11 ± 1.22 s
same,hot plate paw withdrawal time,SD rats [1]; [31],2.66 ± 0.53 s
same,hot plate paw withdrawal time,SD rats [1]; [32],3.09 ± 0.82 s
same,motor block effect (summary),SD rats [2]; 3 mg/kg (0.66 mg/rat) and 1 mg/kg (0.22 mg/rat),motor block effect
same,motor nerve block effect (summary),"SD rats [2]; 0.3, 0.1, 0.03 mg/kg (ie, 0.066, 0.022, 0.0066 mg/rat)",no motor nerve block effect is observed
same,motor function score,SD rats [2]; [3],1 ± 0
same,motor function score,SD rats [2]; [4],1 ± 0
same,motor function score,SD rats [2]; [5],1.75 ± 0.5
same,motor function score,SD rats [2]; [6],1.75 ± 0.5
same,motor function score,SD rats [2]; [7],1.75 ± 0.5
same,motor function score,SD rats [2]; [8],1 ± 0
same,motor function score,SD rats [2]; [9],1 ± 0
same,motor function score,SD rats [2]; [10],1.5 ± 0.58
same,motor function score,SD rats [2]; [11],1.5 ± 0.58
same,motor function score,SD rats [2]; [12],1.25 ± 0.5
same,motor function score,SD rats [2]; [13],1 ± 0
same,motor function score,SD rats [2]; [14],1 ± 0
same,motor function score,SD rats [2]; [15],1 ± 0
same,motor function score,SD rats [2]; [16],1 ± 0
same,motor function score,SD rats [2]; [17],1 ± 0
same,motor function score,SD rats [2]; [18],1 ± 0
same,motor function score,SD rats [2]; [19],1 ± 0
same,motor function score,SD rats [2]; [20],1 ± 0
same,motor function score,SD rats [2]; [21],1 ± 0
same,motor function score,SD rats [2]; [22],1 ± 0
same,motor function score,SD rats [2]; [23],1 ± 0
same,motor function score,SD rats [2]; [24],1 ± 0
same,motor function score,SD rats [2]; [25],1 ± 0
same,motor function score,SD rats [2]; [26],1 ± 0
same,motor function score,SD rats [2]; [27],1 ± 0
same,motor function score,SD rats [2]; [28],1 ± 0
same,motor function score,SD rats [2]; [29],1 ± 0
same,motor function score,SD rats [2]; [30],1 ± 0
same,motor function score,SD rats [2]; [31],1 ± 0
same,motor function score,SD rats [2]; [32],1 ± 0

# Source: patent US11654198B2, “Application of combination of polyethylene glycol and local anesthetic in non-narcotic analgesia” (JENKEM TECHNOLOGY CO., LTD. (TIANJIN), priority 2016, dated 2023)
